From ChEMBL document CHEMBL1132071, “Benzenesulfonamide derivatives of 2-substituted 4H-3,1-benzoxazin-4-ones and benzthiazin-4-ones as inhibitors of complement C1r protease” (Bioorg Med Chem Lett, 1999)

What was measured:
[1] = molecular target: T1, Complement C1r subcomponent (Homo sapiens, UniProt P00736); assay: In vitro inhibition of purified human C1r protease.
T1 sequence (P00736 whole entry): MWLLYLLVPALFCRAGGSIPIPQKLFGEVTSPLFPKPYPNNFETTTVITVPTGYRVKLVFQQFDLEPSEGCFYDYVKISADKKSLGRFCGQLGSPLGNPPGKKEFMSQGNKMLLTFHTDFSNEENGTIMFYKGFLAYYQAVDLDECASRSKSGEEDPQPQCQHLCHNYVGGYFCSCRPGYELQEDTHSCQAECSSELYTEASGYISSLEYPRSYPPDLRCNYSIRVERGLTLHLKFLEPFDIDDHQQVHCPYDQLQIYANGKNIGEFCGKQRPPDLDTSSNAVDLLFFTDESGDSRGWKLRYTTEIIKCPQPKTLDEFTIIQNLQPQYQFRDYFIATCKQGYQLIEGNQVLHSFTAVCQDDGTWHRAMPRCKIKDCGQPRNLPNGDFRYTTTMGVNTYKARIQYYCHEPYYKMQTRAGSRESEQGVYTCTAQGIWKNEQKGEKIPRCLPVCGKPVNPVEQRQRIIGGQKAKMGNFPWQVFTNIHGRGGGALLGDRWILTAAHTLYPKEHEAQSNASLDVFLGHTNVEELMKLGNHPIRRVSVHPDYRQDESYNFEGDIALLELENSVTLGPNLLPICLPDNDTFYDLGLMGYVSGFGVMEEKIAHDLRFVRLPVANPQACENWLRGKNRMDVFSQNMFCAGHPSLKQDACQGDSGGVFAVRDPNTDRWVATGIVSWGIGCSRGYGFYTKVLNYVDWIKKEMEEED

[2] = (§1) Inhibitory activity against hemolysis at 200 uM using suspension of sheep erythrocytes sensitized with antibodies to sheep erythrocytes; format: functional; conditions: Ovis aries
[3] = molecular target: T1, Complement C1r subcomponent; assay: Evaluated in vitro for inhibitory activity against purified human C1r protease incubated in buffer for 60 minutes
[4] = molecular target: T2, Complement C1r subcomponent (Homo sapiens) (UniProt P00736); assay: Compound was evaluated for inhibitory activity against purified human C1r protease at 62 uM was reported after 60 min.
T2 sequence (whole entry): T1 sequence (P00736 whole entry)

[5] = Compound was evaluated for inhibitory activity in hemolysis assay using suspension of sheep erythrocytes sensitized with antibodies to sheep erythrocytes; format: functional, Ovis aries
[6] = molecular target: T2, Complement C1r subcomponent (Homo sapiens); assay: Compound was evaluated for inhibitory activity against purified human C1r protease at 31.2 uM
[7] = molecular target: T2, Complement C1r subcomponent (Homo sapiens); assay: Compound was evaluated for inhibitory activity against purified human C1r protease at 15 uM concentration
[8] = Percent of inhibition at 200 uM was determined in hemolysis assay using suspension of sheep erythrocytes sensitized with antibodies to sheep erythrocytes; format: functional, Ovis aries; set-up: scale not given: the % may be the effect or the level left
[9] = as §1; format: functional, Ovis aries; set-up: scale not given: the % may be the effect or the level left

SMILES | IC50 [1] | IC50 [3] | also measured
CCN(c1nc2ccccc2c(=O)o1)S(=O)(=O)c1ccccc1 | 3.2 µM | 8.3 µM | inhibition at 200 µM [2]: 86%
Cc1ccc(S(=O)(=O)N(C)c2nc3ccccc3c(=O)o2)cc1 | 7.8 µM |  | inhibition [4]: 40%
CCN(c1nc2ccccc2c(=O)o1)S(=O)(=O)c1ccc(Cl)cc1 | 30 µM | 62 µM | 
CN(c1nc2ccccc2c(=O)o1)S(=O)(=O)c1ccc(N)cc1 | 7 µM | 62 µM | IC50 [5]: 8 µM
CN(c1nc2ccccc2c(=O)o1)S(=O)(=O)c1ccc(C(C)(C)C)cc1 | > 60 µM | > 60 µM | 
CN(c1nc2ccccc2c(=O)o1)S(=O)(=O)c1ccc([N+](=O)[O-])cc1 | 31 µM |  | 
CN(c1nc2ccccc2c(=O)o1)S(=O)(=O)c1ccc(C#N)cc1 | 20 µM |  | inhibition [4]: 30%
CN(c1nc2ccccc2c(=O)o1)S(=O)(=O)c1cccc2ccccc12 | 6 µM | 10 µM | inhibition at 200 µM [2]: 56%
COc1ccc(S(=O)(=O)N(C)c2nc3ccccc3c(=O)o2)cc1 | 0.7 µM | 6 µM | inhibition at 200 µM [2]: 80%
CN(c1nc2ccccc2c(=O)o1)S(=O)(=O)c1ccccc1Br | 2.8 µM | 25 µM | 
CN(c1nc2ccccc2c(=O)o1)S(=O)(=O)c1ccc(Cl)cc1 |  | > 62 µM | inhibition [6]: 40%
CN(c1nc2ccccc2c(=O)o1)S(=O)(=O)c1ccc(Cl)c(Cl)c1 |  | > 62.5 µM | inhibition [7]: 20%
COc1ccc(S(=O)(=O)N(C)c2nc3ccccc3c(=O)s2)cc1 | > 62.5 µM |  | 
CN(c1nc2ccccc2c(=O)o1)S(=O)(=O)c1ccc(NC(=N)N)cc1 | 1.5 µM | 3 µM | IC50 [5]: 18 µM
O=c1oc(Nc2ccccc2I)nc2cc(C(F)(F)F)ccc12 |  |  | Control [8]: 146%
CN(c1nc2ccccc2c(=O)o1)S(=O)(=O)c1cccc(Cl)c1 | 24 µM | 58 µM | inhibition at 200 µM [2]: 49%
CN(c1nc2ccccc2c(=O)s1)S(=O)(=O)c1ccccc1 | > 62.5 µM |  | Control [9]: 162%
CN(c1nc2ccccc2c(=O)o1)S(=O)(=O)c1c(Cl)cccc1Cl | 7.5 µM | > 62 µM | 
CN(c1nc2ccccc2c(=O)o1)S(=O)(=O)c1ccccc1 | 4 µM | 6 µM | Control [9]: 162%
N=C(N)Nc1ccc(C(=O)Oc2ccc3cc(C(=N)N)ccc3c2)cc1 [NAFAMOSTAT] |  |  | IC50 [5]: 16.6 µM
